The record followed here is the OligoGym collection.

The target of the data set is MALAT1. Particulars: ASO, A431, 0.005 µM.

Where “and” joins values, the source holds several entries; their conditions need not be identical. Equal entries are not always repeated. After the bases stand the sugars from the 5' end (letter, count) and the backbone: PS all phosphorothioate, else s phosphorothioate and o phosphodiester by linkage. Methylation of C is not given here. k = constrained ethyl (cEt); d = 2'-deoxy (DNA)

In the case of CCGCACAGCTCGGGCG (sugars k3 d10 k3, PS), the target mRNA inhibition came to 14%.

As for TGGTACACCCAGTGGC (sugars k3 d10 k3, PS), the target mRNA inhibition came to 17%.

Take AATATTTGCCCCTCCC (sugars k3 d10 k3, PS): the target mRNA inhibition was 15%.

As to TGCCTTTAGGATTCTA (sugars k3 d10 k3, PS), the target mRNA inhibition turned out to be 45%.

Regarding CTTCTGCACCACCAGA (sugars k3 d10 k3, PS), the target mRNA inhibition worked out at 13%.

On to ACCTCCGTCATGTTTT (sugars k3 d10 k3, PS), for which the target mRNA inhibition is 43%.

For CATTTCTCCAATGGAC (sugars k3 d10 k3, PS), the target mRNA inhibition is 12%.

Consider AGCTTATGGAACTTGA (sugars k3 d10 k3, PS), for which the target mRNA inhibition worked out at 16%.

Consider ACATGCAATACTGCAG (sugars k3 d10 k3, PS), for which the target mRNA inhibition stood at 3%.

Consider TGCACTCGCTCCTTCC (sugars k3 d10 k3, PS), for which the target mRNA inhibition was found to be 33%.

As to TCCTCAATCCACTTGA (sugars k3 d10 k3, PS), the target mRNA inhibition amounted to 44%.

For TATTCCAGGATTAATG (sugars k3 d10 k3, PS), the target mRNA inhibition was found to be 29%.

As for AAGTTGGTAATTACTC (sugars k3 d10 k3, PS), the target mRNA inhibition amounted to 22%.

Regarding GAAGAGCATTGGAGAT (sugars k3 d10 k3, PS), the target mRNA inhibition came out at 49%.

In the case of TAAATTGGTTCTGGTC (sugars k3 d10 k3, PS), the target mRNA inhibition was 49%.

Regarding CAGCTTATGGAACTTG (sugars k3 d10 k3, PS), the target mRNA inhibition was -33%.

Regarding AGCTGCAAACTTTAGA (sugars k3 d10 k3, PS), the target mRNA inhibition was determined as 26%.

As for TATCTTAGTAACCTAT (sugars k3 d10 k3, PS), the target mRNA inhibition was found to be 21%.

As for TTGGCCTACTCAAGCT (sugars k3 d10 k3, PS), the target mRNA inhibition was -8%.

For the sequence CGGAATTCGATCACCT (sugars k3 d10 k3, PS), the target mRNA inhibition worked out at 19%.

For ACGGGTCATCAAACAC (sugars k3 d10 k3, PS), the target mRNA inhibition stood at 14%.

As to CCTATCTTCACCACGA (sugars k3 d10 k3, PS), the target mRNA inhibition worked out at 6%.

GGGTACTTCAAGCATT (sugars k3 d10 k3, PS): the target mRNA inhibition came to 43%.

For AAGCCCTCTCAGCCAC (sugars k3 d10 k3, PS), the target mRNA inhibition was determined as 38%.

Turning to AATTTCCTTAGTTGGC (sugars k3 d10 k3, PS), the target mRNA inhibition is 68% and 93%.

Consider CCCTGTTAAGACCATC (sugars k3 d10 k3, PS), for which the target mRNA inhibition was 21%.

As to TCTTCGGTTAAAAATA (sugars k3 d10 k3, PS), the target mRNA inhibition amounted to 19%.

CTATAGCATCTGTGGA (sugars k3 d10 k3, PS): the target mRNA inhibition amounted to 29%.

With GTTCAACCCACCAAAG (sugars k3 d10 k3, PS), the target mRNA inhibition amounted to 36%.

With TTTAGGATTCTAGACA (sugars k3 d10 k3, PS), the target mRNA inhibition amounted to 25%.

As to TAGACCAACTAAGCGA (sugars k3 d10 k3, PS), the target mRNA inhibition is -9%.

Turning to AAATAAGCACTTATCC (sugars k3 d10 k3, PS), the target mRNA inhibition was 18%.

Regarding ATTCAATACTATTGTC (sugars k3 d10 k3, PS), the target mRNA inhibition stood at 24%.

Consider AGACCTCGACACCATC (sugars k3 d10 k3, PS), for which the target mRNA inhibition was determined as 46%.

For the sequence GTCTGAAGAATACCAT (sugars k3 d10 k3, PS), the target mRNA inhibition was determined as 47%.

Consider GCCCACTCTGATCTGC (sugars k3 d10 k3, PS), for which the target mRNA inhibition is -4%.

For ACTAGTGGTTCCCAAT (sugars k3 d10 k3, PS), the target mRNA inhibition was 33%.

In the case of TAATGTAGTGTAACAT (sugars k3 d10 k3, PS), the target mRNA inhibition was determined as 29%.

For TGCCAATATTTGCCCC (sugars k3 d10 k3, PS), the target mRNA inhibition is 20%.

On to ACCCAAAAGCCCTCTC (sugars k3 d10 k3, PS), for which the target mRNA inhibition was found to be 13%.

On to CGTCATGGATTTCAAG (sugars k3 d10 k3, PS), for which the target mRNA inhibition amounted to 40%.

For the sequence CTATTGGTATTAATTC (sugars k3 d10 k3, PS), the target mRNA inhibition was 7%.

On to TAATGGTTTTCTACAC (sugars k3 d10 k3, PS), for which the target mRNA inhibition stood at 40%.

Consider CCTTTACACCTCAGTA (sugars k3 d10 k3, PS), for which the target mRNA inhibition was found to be 13%.

On to TAGTGTAAAACATTGC (sugars k3 d10 k3, PS), for which the target mRNA inhibition worked out at 35%.

With CCCCCGGAACTTTTAA (sugars k3 d10 k3, PS), the target mRNA inhibition was -12%.

For the sequence ATTGTTTCATCCTACC (sugars k3 d10 k3, PS), the target mRNA inhibition was found to be 22%.

Regarding TCTGATAACGAAGAGA (sugars k3 d10 k3, PS), the target mRNA inhibition turned out to be 21%.

For CCCCCCAAGATTGCCC (sugars k3 d10 k3, PS), the target mRNA inhibition turned out to be 14%.

With GCATTTACTTGCCAAC (sugars k3 d10 k3, PS), the target mRNA inhibition was 11%.

As for TACGACTGCTTAAAAC (sugars k3 d10 k3, PS), the target mRNA inhibition is 5%.

With TACACCTCAGTACGAA (sugars k3 d10 k3, PS), the target mRNA inhibition amounted to 28%.

As for ACTATAGCATCTGTGG (sugars k3 d10 k3, PS), the target mRNA inhibition amounted to 9%.

For the sequence CAAGTTACATGTTCCC (sugars k3 d10 k3, PS), the target mRNA inhibition came to 42%.

With CACTTATCCCTAACAT (sugars k3 d10 k3, PS), the target mRNA inhibition was 10%.

As for TTCCGCTAAGATGCTA (sugars k3 d10 k3, PS), the target mRNA inhibition was 9%.
